Test results as given in publication PMC11939361, “diAcCA, a Pro-Drug for Carnosic Acid That Activates the Nrf2 Transcriptional Pathway, Shows Efficacy in the 5xFAD Transgenic Mouse Model of Alzheimer’s Disease” (Antioxidants, 2025).
“Also recorded” adds a separate entry of the source.

Experiments:
[1] = test system: WT 6XC57BL6 mice; assay: Non-GLP toxicology analysis of esophagus and stomach (H&E, inflammation); type: in vivo, mouse; conditions: for overall safety / toxicology: in vivo
Procedure: Starting at 5 months of age, WT 6XC57BL6 mice were given either the highest dose of diAcCA used in this study (50 mg/kg) or olive oil vehicle three times a week for three months by oral gavage/PO. Following the treatment, the esophagus and stomach were isolated, and 5 μm-thick coronal and sagittal sections were cut from the esophagus. The stomach was opened along the greater curvature, cleaned with PBS, and pinned flat. Two 5 μm-thick sagittal sections were collected, one extending from the cardiac region to the duodenum, and the other from the forestomach to the fundic area. All sections were made using a rotary microtome (HM325-#387821, Fisher Scientific) and mounted on SuperfrostPlus slides (#1255015, Fisher brand). The sections were stained by hematoxylin and eosin stain (H&E) [Abcam H&E kit, ab245880], mounted with permount, dried overnight at room temperature, and then imaged. Acquired images were analyzed in a masked fashion for inflammation by a board-certified pathologist.
Extensive toxicity and safety data are already published on CA [47, 48]. […] Accordingly, in light of our PK findings, we selected a dose of 50 mg/kg to assess safety of the drug after oral administration to WT mice. We performed a non-GLP toxicology analysis of vehicle (olive oil) or drug administered PO three times a week for 3 months starting at 5 months of age. Following this period, sections from the stomach and esophagus were stained with H&E and examined blindly by a board-certified toxicologic pathologist.
Supplementary Figure S2. Pharmacokinetic and safety studies for diAcCA. […]
(D, E) Non-GLP toxicology analysis on WT mice after treatment with vehicle ( olive oil) or the highest concentration of diAcCA (50 mg/ kg) used in these experiments.
Representative esophagus and stomach lining sections (D) stained by hematoxylin & eosin (H&E) from two groups of mice. Scale: 500 μm. Bar graph (E) quantifying inflammation in esophagus (periesophagitis) and stomach (neutrophilic gastritis) by a standard tox inflammatory score ranging from 0 to 4 (0: inflammation within normal limits, 1: minimal […]
baseline inflammation in WT mice (n =3 animals in each group).
(1 picture or pasted object on this page, not shown here)

[2] = test system: 5xFAD mice; assay: Morris water maze probe test; type: in vivo, mouse; conditions: for Morris water maze probe test, time in the platform quadrant zone: compared to WT control mice; for Morris water maze probe test, percentage of time in the target quadrant / Morris water maze probe test, time to first enter the platform zone: compared to WT controls
Procedure: diAcCA or control vehicle was administered three times per week for 3 months to 5xFAD Tg or WT littermate control mice starting at approximately 5 months of age by oral gavage (designated here as “per os” or PO). Three different doses were used (10 mg/kg, 20 mg/kg, or 50 mg/kg). diAcCA was dissolved in olive oil vehicle, a non-polar organic solvent. For vehicle control, we administered olive oil alone. A total of 45 animals were used in this study, with 7–8 animals in each group.
The Morris water maze test is used to evaluate spatial learning and memory skills in rodents. In the experimental setup, mice are placed in a circular tank containing opaque water maintained at a consistent temperature of 21 ± 1 °C. The mice undergo 2 trials each day for a period of 4 days during which they are trained to find a hidden platform placed somewhere within the tank. The platform acts as an escape for the mice from swimming. The starting point of the mice in the tank is randomized; however, the location of the platform remains unchanged for a given mouse. After entering the water, the mice are given a maximum of 90 s to navigate to the platform and climb it. If a mouse is unable to find the platform in this duration, the experimenter offers gentle guidance to help it in reaching the platform. On day 5, after the training phase is over, a “probe trial” is conducted in which the platform is removed from the water maze. The mice are allowed to swim for a period of 60 s to observe if they learned to use spatial cues to navigate to safety (i.e., swim to the area in which the platform had been located and then spend more time in this quadrant of the pool than the other quadrants). After each trial, the mice are given a 10 min rest period in which they are transferred to a new cage with a warm towel. Data are analyzed using Noldus EthoVision software (version XT 17, Leesburg, VA, USA) with parameters measured for “latency to escape” for the acquisition trials and “quadrant time” as well as “distance and velocity of swimming” in the probe test.
To delineate the effect of diAcCA on spatial memory, we performed the Morris water maze probe test, a widely used assessment for evaluating hippocampal-dependent memory. After diAcCA or vehicle treatment of WT and 5xFAD mice for 3 months starting at 5 months of age, the animals were initially trained for […] to ensure learning of the spatial memory task, i.e., swimming to the location of a hidden platform in the opaque water maze that the mice could stand on. Subsequently, their memory for the task was measured using the “probe test”, monitoring how well each mouse recalled the location of the platform once it had been removed from the swimming tank. This was assessed by the amount of time spent in the proper quadrant of the tank that previously housed the platform (the “target” quadrant) vs. other quadrants.

[3] = mouse, in vivo
Procedure: We tested both CA and diAcCA compounds by oral gavage/PO at 10 mg/kg. Analysis was performed by LC-MS in the Scripps Florida Drug Development Core (Jupiter, FL, USA). The compounds were formulated in olive oil. CA went into the oil with minimal stirring, but diAcCA required longer stirring. Blood was collected in hematocrit tubes and centrifuged. […] Drug is therefore likely absorbed via enterocyte passage and through chylomicron absorbance, complicating the early time points of the PK curves.
Therefore, we decided to pre-weigh the CA into a vial and, in the vivarium, rapidly dissolve the compound in DMSO and then add Tween80/saline. The compound was dosed within five minutes of being dissolved, and the final concentrations were 5% DMSO and 95% of a 5% Tween80 solution in saline. […] Oral clearance calculations assume 100% bioavailability.
We also determined the stability and bioavailability of diAcCA compared to CA. For this purpose, individual mice were administered CA or diAcCA IV or via oral gavage/PO. For CA, the doses were 3 mg/kg for the IV route and 10 mg/kg for oral gavage/PO, and for diAcCA 10 mg/kg by oral gavage/PO.

## CC(=O)Oc1c(C(C)C)cc2c(c1OC(C)=O)[C@@]1(C(=O)O)CCCC(C)(C)[C@@H]1CC2 [diAcCA]
[1]; WT mice, 50 mg/kg PO three times a week for 3 months vs olive oil vehicle, n = 3, 50 mg/kg
  baseline inflammation in the esophagus (periesophagitis), H&E: appeared to improve; also recorded: improved baseline inflammation in the esophagus
[1]; mouse
  overall safety / toxicology: as safe or safer than CA
  toxicity to the digestive system after oral administration: no toxicity was noted
[1]; mouse, listed as diAcCa
  overall safety / toxicology: no toxicological issues
[2]; 10 mg/kg and 20 mg/kg
  Morris water maze probe test, time in the platform quadrant zone: spent significantly less time in the platform quadrant zone compared to WT control mice
[2]; 10 mg/kg
  Morris water maze probe test, percentage of time in the target quadrant: spent significantly less time in the target quadrant
  Morris water maze probe test, time to first enter the platform zone: took significantly more time to first enter the platform zone compared to WT controls
[2]; 20 mg/kg and 50 mg/kg
  Morris water maze probe test, percentage of time in the target quadrant: spent a similar percentage of time in the target and other quadrants as the WT controls
  Morris water maze probe test, time to first enter the platform zone: took a similar amount of time compared to WT controls
[2]; 50 mg/kg
  Morris water maze probe test, time in the platform quadrant zone: spent similar amount of time in the platform quadrant as WT control mice
[2]; ≥20 mg/kg, or, for total time spent in the target quadrant, 50 mg/kg
  Morris water maze probe test, performance (time in target quadrant, time to reach platform zone): performed significantly better
[3]
  half-life (t1/2): over 12 h
[3]; po
  Cmax greater than after CA itself: ~30%
[3]; po, 10 mg/kg
  Cmax of CA in plasma: 5.75
  Tmax: 1.67 h
  average half-life: 12.27 h
  mean Cmax of CA: 5.75 µM
  t1/2: 12.27 h
  time to peak plasma levels of CA after administration of diAcCA: ~ 15 min
